The text below walks through data of PubChem BioAssay (NCI).

Among the test systems are HOP-92 NSCLC; PC-3 prostate; NCI/ADR-RES ovarian; UO-31 renal; SF-295 CNS; K-562 leukemia; BT-549 breast; SW-620 colon; OVCAR-8 ovarian; OVCAR-4 ovarian.
Assay in all cases: NCI tumour cell line growth inhibition, 48 h

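Growth conditions: 96-well plates. Treatment: test compound, 48 hours, 5 concentrations. Analysis: linear interpolation between bracketing concentrations; unreached endpoints set to highest concentration. Abbreviation: GI50, concentration required for 50% inhibition of growth. TGI: total growth inhibition.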 Some results are limits rather than exact numbers.

As for `CCC(C)C(=O)OC1CCC=C2C=CC(C)C(CCC3CC(O)CC(=O)O3)C21` (stereo unspecified), the GI50 in the assay on HOP-92 NSCLC was 0.79 µM. Moreover, the TGI in the assay on HOP-92 NSCLC was more than 100 µM; in the assay on PC-3 prostate it was more than 47.9 µM; with NCI/ADR-RES ovarian, more than 100 µM; in the assay with UO-31 renal, more than 100 µM; in the assay with SF-295 CNS, more than 100 µM; with K-562 leukemia, more than 100 µM. The TGI in the assay with BT-549 breast was 73 µM; with SW-620 colon, more than 100 µM; in the assay with OVCAR-8 ovarian, more than 100 µM; in the assay on OVCAR-4 ovarian it was more than 100 µM.

In the case of `O=C(O)c1[nH]c2c([N+](=O)[O-])cc([N+](=O)[O-])cc2c1C(=O)O`, the TGI in the assay on HOP-92 NSCLC, with PC-3 prostate, in the assay on NCI/ADR-RES ovarian, in the assay with UO-31 renal, in the assay with SF-295 CNS and in the assay with K-562 leukemia was more than 100 µM in each case. In addition, the TGI with BT-549 breast, with SW-620 colon, with OVCAR-8 ovarian and in the assay on OVCAR-4 ovarian was more than 100 µM each time.

For `CCCCC[C@H]1C/C=C2/C(=O)C(Cl)=C[C@@H]2C/C=C\CCCC(=O)O1`, the GI50 is 0.587 µM with HOP-92 NSCLC; 0.473 µM with PC-3 prostate; 0.317 µM with NCI/ADR-RES ovarian; 0.379 µM with UO-31 renal; 0.563 µM in the assay on SF-295 CNS; 0.116 µM in the assay with K-562 leukemia. The GI50 in the assay with BT-549 breast was 0.421 µM; with SW-620 colon it was 0.181 µM; in the assay with OVCAR-8 ovarian, 0.328 µM; with OVCAR-4 ovarian it was 0.735 µM. Also, the TGI in the assay with HOP-92 NSCLC was determined as 1.38 µM; in the assay with PC-3 prostate, 1.27 µM; in the assay on NCI/ADR-RES ovarian, 1.64 µM; with UO-31 renal it was 0.717 µM; in the assay on SF-295 CNS, 1.53 µM; with K-562 leukemia it was 3.6 µM. The TGI in the assay with BT-549 breast was found to be 0.825 µM; with SW-620 colon, 1.3 µM; in the assay with OVCAR-8 ovarian it was 1.65 µM; with OVCAR-4 ovarian, 3.83 µM.

As to `COc1ccc2nc3ccccc3c(NCc3ccccc3)c2c1`, the GI50 is 2.33 µM in the assay on HOP-92 NSCLC; 2.35 µM in the assay on PC-3 prostate; 2.09 µM in the assay on NCI/ADR-RES ovarian; 1.54 µM with UO-31 renal; 2.13 µM in the assay with SF-295 CNS; 2.43 µM in the assay with K-562 leukemia. In addition, the GI50 in the assay with BT-549 breast is 2.16 µM; in the assay with SW-620 colon, 1.72 µM; with OVCAR-8 ovarian, 2.76 µM; in the assay with OVCAR-4 ovarian, 2.37 µM. Besides, the TGI in the assay with HOP-92 NSCLC is 7.88 µM; in the assay on PC-3 prostate, 7.39 µM; in the assay with NCI/ADR-RES ovarian, 6.69 µM; in the assay on UO-31 renal, 5.34 µM; with SF-295 CNS, 5.86 µM; with K-562 leukemia, 11.5 µM. In addition, the TGI with BT-549 breast was 5.18 µM; in the assay with SW-620 colon it was 4.68 µM; with OVCAR-8 ovarian it was 9.32 µM; in the assay on OVCAR-4 ovarian, 7.58 µM.

For the compound `O=C(Nc1ccc(Cl)cc1)N1CCN(c2ccc3nncn3n2)CC1`, the GI50 is 31.7 µM in the assay on HOP-92 NSCLC; 34.3 µM in the assay on PC-3 prostate; more than 100 µM with NCI/ADR-RES ovarian; 24.9 µM with UO-31 renal; 53.4 µM with SF-295 CNS; 22 µM with K-562 leukemia. In addition, the GI50 with BT-549 breast was 57.4 µM; in the assay with SW-620 colon, 60.8 µM; in the assay on OVCAR-8 ovarian it was 69.7 µM; in the assay on OVCAR-4 ovarian, 51.6 µM. In addition, the TGI with HOP-92 NSCLC, with PC-3 prostate, in the assay with NCI/ADR-RES ovarian, with UO-31 renal, in the assay with SF-295 CNS and in the assay on K-562 leukemia was more than 100 µM each time. Besides, the TGI with BT-549 breast, with SW-620 colon, in the assay with OVCAR-8 ovarian and in the assay with OVCAR-4 ovarian was more than 100 µM in each case.

`CCN(CC)CCCNc1cc(OC)c(OC)c2cccnc12`: the GI50 in the assay with HOP-92 NSCLC was 28.4 µM; in the assay with PC-3 prostate it was 16.1 µM; in the assay with NCI/ADR-RES ovarian it was 15.6 µM; in the assay with UO-31 renal, 14.1 µM; in the assay with SF-295 CNS, 7.74 µM; with K-562 leukemia, 5.22 µM. Moreover, the GI50 in the assay on BT-549 breast was 18.6 µM; in the assay with SW-620 colon it was 1.8 µM; in the assay on OVCAR-8 ovarian, 13.3 µM; in the assay on OVCAR-4 ovarian it was 1.68 µM. Besides, the TGI was 62.8 µM in the assay with HOP-92 NSCLC; 47.2 µM in the assay on PC-3 prostate; 49 µM in the assay on NCI/ADR-RES ovarian; more than 100 µM in the assay on UO-31 renal; 33.1 µM in the assay on SF-295 CNS; more than 100 µM with K-562 leukemia. The TGI with BT-549 breast was 36.5 µM; with SW-620 colon, 20.2 µM; in the assay on OVCAR-8 ovarian it was 35.5 µM; in the assay with OVCAR-4 ovarian it was 3.18 µM.

Regarding `c1ccc(/C(=N\Nc2nc3ccccc3s2)c2ccccn2)cc1`, the TGI in the assay with HOP-92 NSCLC is more than 71.6 µM; in the assay on PC-3 prostate, more than 53.2 µM; in the assay with NCI/ADR-RES ovarian, more than 100 µM; in the assay with UO-31 renal, 16.3 µM; in the assay with SF-295 CNS it was more than 100 µM; in the assay with K-562 leukemia, more than 44.1 µM. Also, the TGI in the assay on BT-549 breast, in the assay on SW-620 colon, in the assay with OVCAR-8 ovarian and in the assay on OVCAR-4 ovarian was more than 100 µM each time.

In the case of `COc1cccc(-c2nn(-c3ccccc3)cc2-c2ccnc(NCCCNS(=O)(=O)c3ccc(C(F)(F)F)cc3)c2)c1`, the GI50 in the assay on HOP-92 NSCLC was 3.68 µM; in the assay on PC-3 prostate, 3.36 µM; with NCI/ADR-RES ovarian it was 3.86 µM; with UO-31 renal, 2.9 µM; in the assay with SF-295 CNS it was 3.17 µM; with K-562 leukemia, 3.06 µM. Besides, the GI50 was 4.41 µM in the assay with BT-549 breast, 11.2 µM in the assay with SW-620 colon, 7.13 µM in the assay with OVCAR-8 ovarian and 4.36 µM in the assay on OVCAR-4 ovarian. Further, the TGI with HOP-92 NSCLC, in the assay on PC-3 prostate, in the assay on NCI/ADR-RES ovarian, in the assay with UO-31 renal, in the assay with SF-295 CNS and in the assay with K-562 leukemia was more than 100 µM in each case. The TGI with BT-549 breast, in the assay with SW-620 colon, with OVCAR-8 ovarian and in the assay with OVCAR-4 ovarian was more than 100 µM in each case.

In the case of `O=C(CC1Sc2ccccc2NC1=O)NNc1ccc(F)cc1` (stereo unspecified), the GI50 in the assay on HOP-92 NSCLC is more than 100 µM; in the assay with PC-3 prostate, 64.1 µM; in the assay on NCI/ADR-RES ovarian it was 22.5 µM; in the assay on UO-31 renal it was 7.47 µM; with SF-295 CNS, 12.7 µM; with K-562 leukemia, 4.67 µM. Besides, the GI50 was more than 100 µM in the assay with BT-549 breast, 38.5 µM in the assay with SW-620 colon, 9.78 µM in the assay on OVCAR-8 ovarian and more than 100 µM in the assay with OVCAR-4 ovarian. For the same compound, the TGI with HOP-92 NSCLC, with PC-3 prostate, in the assay on NCI/ADR-RES ovarian, in the assay on UO-31 renal, in the assay on SF-295 CNS and in the assay with K-562 leukemia was more than 100 µM in each case. For the same compound, the TGI in the assay on BT-549 breast, in the assay with SW-620 colon, with OVCAR-8 ovarian and in the assay on OVCAR-4 ovarian was more than 100 µM each time.

As to `Cc1cc(OCc2nn(CN3CCN(C)CC3)c(=S)n2/N=C/c2ccc(F)cc2)ccc1Cl`, the GI50 in the assay on HOP-92 NSCLC was 17.8 µM; in the assay on PC-3 prostate, 16.2 µM; in the assay with NCI/ADR-RES ovarian it was 18.8 µM; in the assay with UO-31 renal, 17.6 µM; in the assay on SF-295 CNS it was 17.9 µM; in the assay on K-562 leukemia, 19.2 µM. Besides, the GI50 with BT-549 breast is 17.6 µM; with SW-620 colon, 18.7 µM; in the assay with OVCAR-8 ovarian it was 18 µM; in the assay with OVCAR-4 ovarian, 6.86 µM. In addition, the TGI in the assay with HOP-92 NSCLC was determined as 37.6 µM; in the assay on PC-3 prostate it was 31.6 µM; in the assay on NCI/ADR-RES ovarian, 36.1 µM; in the assay on UO-31 renal it was 32.9 µM; in the assay with SF-295 CNS, 36.6 µM; in the assay on K-562 leukemia, 41.7 µM. The TGI with BT-549 breast stood at 32.7 µM; in the assay with SW-620 colon, 35.7 µM; in the assay on OVCAR-8 ovarian it was 32.2 µM; with OVCAR-4 ovarian it was 22 µM.

On to `CC(=N\O)/C(C)=N/O.CC(=N\O)/C(C)=N/O.[Fe].[NH2-].c1c[nH]cn1`, for which the GI50 is 28.6 µM with HOP-92 NSCLC; more than 100 µM with PC-3 prostate; more than 100 µM in the assay with NCI/ADR-RES ovarian; 1.43 µM with UO-31 renal; more than 100 µM in the assay with SF-295 CNS; more than 100 µM in the assay on K-562 leukemia. Moreover, the GI50 in the assay on BT-549 breast, with SW-620 colon, in the assay on OVCAR-8 ovarian and in the assay on OVCAR-4 ovarian was more than 100 µM in each case. For the same compound, the TGI in the assay on HOP-92 NSCLC is more than 100 µM; in the assay with PC-3 prostate it was more than 100 µM; in the assay on NCI/ADR-RES ovarian, more than 100 µM; with UO-31 renal it was 4.34 µM; in the assay with SF-295 CNS, more than 100 µM; in the assay on K-562 leukemia it was more than 100 µM. Moreover, the TGI in the assay on BT-549 breast, with SW-620 colon, in the assay with OVCAR-8 ovarian and in the assay on OVCAR-4 ovarian was more than 100 µM in each case.

On to `C(=C\c1ccc(OCC2CO2)cc1)/C1=NCOC1` (stereo unspecified), for which the GI50 was 1.41 µM in the assay with HOP-92 NSCLC; 13.2 µM in the assay on PC-3 prostate; 3.86 µM in the assay on NCI/ADR-RES ovarian; 3.64 µM with UO-31 renal; 28.3 µM in the assay with SF-295 CNS; 4.23 µM in the assay with K-562 leukemia. The GI50 in the assay on BT-549 breast is 12.4 µM; in the assay with SW-620 colon, 6.1 µM; in the assay with OVCAR-8 ovarian, 5.81 µM; with OVCAR-4 ovarian, 15.4 µM. Moreover, the TGI was 13.2 µM in the assay on HOP-92 NSCLC; 28 µM with PC-3 prostate; 14.9 µM in the assay with NCI/ADR-RES ovarian; 12.8 µM with UO-31 renal; 84.6 µM in the assay with SF-295 CNS; more than 100 µM in the assay with K-562 leukemia. The TGI in the assay with BT-549 breast came out at 27.2 µM; in the assay on SW-620 colon, 22.5 µM; in the assay with OVCAR-8 ovarian, 28 µM; with OVCAR-4 ovarian, 31.9 µM.
